From the supplement of paper PMC10307832

compound: C1=CC2=NC=CN=C2C=C1/C=C/3\C(=O)NC(=O)S3 + Cc1nc(NC(=O)N2CCC[C@H]2C(N)=O)sc1-c1ccnc(C(C)(C)C(F)(F)F)c1 [Alpelisib] (partner 2 µM); assay: relative viability (nuclei count vs DMSO), 5 days (fraction); higher = more cells survive; settings: first compound 2 µM
Method in brief: (§1)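 Medians of duplicate plates are given as relative viability. That measure is the nuclei count in treated wells divided by the count in vehicle wells. Counts were taken on 4× images of lung cancer cell lines in 1536-well plates, 5 days after pin-tool dosing the day after seeding with one drug alone or a fixed anchor-drug dose plus five library-drug doses (not always all listed) in √10 steps.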

Compared with LU99A, HCC-78 is lower in relative viability: 0.393 for the first, 0.294 for the second.

First: NCI-H1299
Second: NCI-H1563
The relative viability of the first is lower: 0.993 for the first, 1.01 for the second.

In the case of ABC-1, the relative viability is reported as 1.02.

compound: CCN1CCN(c2ccc(Nc3cc(N(C)C(=O)Nc4c(Cl)c(OC)cc(OC)c4Cl)ncn3)cc2)CC1 [BGJ398] + CCNC(=O)c1noc(-c2cc(C(C)C)c(O)cc2O)c1-c1ccc(CN2CCOCC2)cc1 [Luminespib] (partner 0.01 µM); assay: as above; settings: first compound 0.01 µM
Method in brief: as §1

Compared with NCI-H522, NCI-H1623 is lower in relative viability: 1.21 for the first, 0.544 for the second.

First: NCI-H727
Second: NCI-H1650
The relative viability of the first is higher: 0.365 for the first, 0.195 for the second.

Going from NCI-H1993 to SW 1573, the relative viability falls from 0.962 to 0.323.

Compared with NCI-H838, LCLC-103H is higher in relative viability: 0.299 for the first, 0.982 for the second.

Going from NCI-H520 to NCI-H2126, the relative viability rises from 0.205 to 0.894.

First: EMC-BAC-2
Second: NCI-H2085
The relative viability of the first is higher: 1.14 for the first, 0.308 for the second.

Compared with NCI-H1666, NCI-H596 is higher in relative viability: 1 for the first, 1.07 for the second.

Compared with LK-2, NCI-H2087 is lower in relative viability: 0.18 for the first, 0.177 for the second.

Compared with NCI-H2342, SK-MES-1 is higher in relative viability: 0.732 for the first, 0.8 for the second.

First: H3255
Second: COR-L23
The relative viability of the first is higher: 0.888 for the first, 0.745 for the second.

Compared with COR-L 105, LOU-NH91 is lower in relative viability: 0.69 for the first, 0.34 for the second.

First: ChaGo-K-1
Second: NCI-H2170
The relative viability of the first is lower: 0.595 for the first, 0.736 for the second.

Compared with NCI-H2405, HOP-62 is higher in relative viability: 0.818 for the first, 0.89 for the second.

First: HCC-44
Second: SW 900
The relative viability of the first is higher: 0.974 for the first, 0.133 for the second.

First: LU99A
Second: NCI-H1563
The relative viability of the first is lower: 0.205 for the first, 0.492 for the second.

Cell Line ABC-1 has a relative viability of 0.795.

same assay, conditions: first compound 0.03162 µM

Compared with NCI-H522, NCI-H1623 is lower in relative viability: 1.4 for the first, 0.434 for the second.

First: NCI-H727
Second: NCI-H1993
The relative viability of the first is lower: 0.467 for the first, 0.916 for the second.

Compared with SW 1573, NCI-H838 is higher in relative viability: 0.242 for the first, 0.302 for the second.

Going from LCLC-103H to NCI-H520, the relative viability falls from 0.961 to 0.235.

First: NCI-H2126
Second: EMC-BAC-2
The relative viability of the first is lower: 0.973 for the first, 1.25 for the second.

Compared with NCI-H2085, NCI-H1666 is higher in relative viability: 0.485 for the first, 0.998 for the second.

First: NCI-H596
Second: LK-2
The relative viability of the first is higher: 1.01 for the first, 0.16 for the second.

First: NCI-H2087
Second: NCI-H2342
The relative viability of the first is lower: 0.186 for the first, 0.701 for the second.

First: SK-MES-1
Second: COR-L23
The relative viability of the first is higher: 0.784 for the first, 0.731 for the second.

First: COR-L 105
Second: ChaGo-K-1
The relative viability of the first is higher: 0.972 for the first, 0.673 for the second.

Compared with NCI-H2170, NCI-H2405 is lower in relative viability: 0.811 for the first, 0.807 for the second.

Going from HOP-62 to HCC-44, the relative viability rises from 0.919 to 1.11.

Going from SW 900 to LU99A, the relative viability rises from 0.201 to 0.248.

Going from NCI-H1563 to ABC-1, the relative viability rises from 0.525 to 0.782.

same assay, conditions: first compound 0.1 µM

Going from NCI-H522 to NCI-H1623, the relative viability falls from 1.09 to 0.501.

Compared with NCI-H727, NCI-H1650 is lower in relative viability: 0.367 for the first, 0.196 for the second.

First: NCI-H1993
Second: SW 1573
The relative viability of the first is higher: 1.08 for the first, 0.209 for the second.

First: NCI-H838
Second: LCLC-103H
The relative viability of the first is lower: 0.272 for the first, 1.07 for the second.

Compared with NCI-H520, NCI-H2126 is higher in relative viability: 0.234 for the first, 0.926 for the second.

Going from EMC-BAC-2 to NCI-H2085, the relative viability falls from 1.22 to 0.564.

First: NCI-H1666
Second: NCI-H596
The relative viability of the first is higher: 0.99 for the first, 0.95 for the second.

First: LK-2
Second: NCI-H2087
The relative viability of the first is lower: 0.169 for the first, 0.173 for the second.

First: NCI-H2342
Second: SK-MES-1
The relative viability of the first is higher: 0.96 for the first, 0.843 for the second.

First: H3255
Second: COR-L23
The relative viability of the first is higher: 1.02 for the first, 0.598 for the second.

Compared with COR-L 105, LOU-NH91 is lower in relative viability: 0.832 for the first, 0.327 for the second.

ChaGo-K-1 and NCI-H2170 are the same in relative viability: 0.724 for the first, 0.724 for the second.

First: NCI-H2405
Second: HOP-62
The relative viability of the first is lower: 0.668 for the first, 1.03 for the second.

First: HCC-44
Second: SW 900
The relative viability of the first is higher: 1.32 for the first, 0.175 for the second.

Going from LU99A to NCI-H1563, the relative viability rises from 0.225 to 0.499.

ABC-1 was tested, and the relative viability was 0.507.

same assay, conditions: first compound 0.3162 µM

First: NCI-H522
Second: NCI-H1623
The relative viability of the first is higher: 0.99 for the first, 0.472 for the second.

Going from NCI-H727 to NCI-H1650, the relative viability falls from 0.345 to 0.205.

Going from NCI-H1993 to SW 1573, the relative viability falls from 0.954 to 0.226.

Compared with NCI-H838, LCLC-103H is higher in relative viability: 0.253 for the first, 0.931 for the second.

First: NCI-H520
Second: NCI-H2126
The relative viability of the first is lower: 0.205 for the first, 0.891 for the second.

First: EMC-BAC-2
Second: NCI-H2085
The relative viability of the first is higher: 1.16 for the first, 0.498 for the second.

First: NCI-H1666
Second: NCI-H596
The relative viability of the first is higher: 1.04 for the first, 0.795 for the second.

Compared with LK-2, NCI-H2087 is higher in relative viability: 0.177 for the first, 0.203 for the second.

Going from NCI-H2342 to SK-MES-1, the relative viability rises from 0.754 to 0.799.

Compared with H3255, COR-L23 is higher in relative viability: 0.625 for the first, 0.799 for the second.

Compared with COR-L 105, LOU-NH91 is lower in relative viability: 0.93 for the first, 0.312 for the second.

Going from ChaGo-K-1 to NCI-H2170, the relative viability rises from 0.577 to 0.795.

First: NCI-H2405
Second: HOP-62
The relative viability of the first is lower: 0.758 for the first, 0.868 for the second.

Compared with HCC-44, SW 900 is lower in relative viability: 1.09 for the first, 0.167 for the second.

Going from LU99A to NCI-H1563, the relative viability rises from 0.243 to 0.556.

ABC-1 was tested, and the relative viability was 0.912.

same assay, conditions: first compound 1 µM

Compared with NCI-H522, NCI-H1623 is lower in relative viability: 1.04 for the first, 0.483 for the second.

First: NCI-H727
Second: NCI-H1650
The relative viability of the first is higher: 0.314 for the first, 0.197 for the second.

First: NCI-H1993
Second: SW 1573
The relative viability of the first is higher: 0.737 for the first, 0.278 for the second.

Compared with NCI-H838, LCLC-103H is higher in relative viability: 0.234 for the first, 0.708 for the second.

Going from NCI-H520 to NCI-H2126, the relative viability rises from 0.203 to 0.832.

First: EMC-BAC-2
Second: NCI-H2085
The relative viability of the first is higher: 1.09 for the first, 0.422 for the second.

Going from NCI-H1666 to NCI-H596, the relative viability falls from 0.988 to 0.768.

Compared with LK-2, NCI-H2087 is lower in relative viability: 0.172 for the first, 0.133 for the second.

Going from NCI-H2342 to SK-MES-1, the relative viability rises from 0.746 to 0.844.

Going from H3255 to COR-L23, the relative viability rises from 0.422 to 0.789.

Compared with COR-L 105, LOU-NH91 is lower in relative viability: 0.801 for the first, 0.301 for the second.

First: ChaGo-K-1
Second: NCI-H2170
The relative viability of the first is lower: 0.651 for the first, 1.24 for the second.

Compared with NCI-H2405, HOP-62 is higher in relative viability: 0.686 for the first, 0.897 for the second.

Compared with HCC-44, SW 900 is lower in relative viability: 0.942 for the first, 0.153 for the second.

Compared with LU99A, NCI-H1563 is higher in relative viability: 0.254 for the first, 0.544 for the second.

Work on ABC-1 yielded a relative viability of 0.876.
